Experimental data taken from patent US11471451B2, “Uses of crenolanib” (Arog Pharmaceuticals, Inc., priority 2019, dated 2022).

How the values were obtained:
Assay type in all cases: in vivo, human
[1] = tested on: FLT3 Variants, FLT3 Activating Mutations, and Co-Occurring Mutations; assay: Example 1: single cell DNA sequencing (TAPESTRI) of longitudinal bone marrow samples; settings: for Variant allele frequency FLT3 D835E: D1 0%; for Variant allele frequency DNMT3A R882H / Variant allele frequency FLT3 D839G / Variant allele frequency KRAS G12D / Variant allele frequency NRAS G13V: D1 1%; for Variant allele frequency FLT3 N841K: D1 18%; for Variant allele frequency FLT3 A680V: D1 20%; for Variant allele frequency FLT3 ITD: D1 22%; for Variant allele frequency DNMT3A R882C: D1 41%; for Variant allele frequency NPM1 dupTCTG: D1 44%
Protocol: In one aspect of the invention pertains to single cell sequencing analysis of recurrent AML genetic mutations that is performed using the […]™ platform. To use said platform, a cell suspension is introduced onto the platform using microfluidics, and each cell is then encapsulated in an oil droplet along with a protease to aid in DNA isolation. Cells are then lysed and loaded back onto the […]™ platform, where each single nucleus is encapsulated with a unique DNA based barcode linked to acrylamide-based beads and PCR master mix and primer sets against recurrent AML mutant genes in an oil droplet. These droplets are directly deposited in PCR tubes and exposed to UV light to release the barcodes. Subsequently the barcoded genomic DNA within the droplets can be amplified according to standard PCR amplification techniques. In this same aspect the PCR products are then isolated using standard molecular biology techniques and then libraries prepared for next-generation sequencing compatible with Illumina platforms (including MiSeq, HiSeq, and NovaSeq), followed by sequencing said libraries on one of the validated Illumina platforms (including MiSeq, HiSeq, and NovaSeq). In the same aspect, the sequencing contains at least 1,000,000 reads per sample, and the allele dropout out rate is at most 10%. Next-generation sequencing data can be analyzed at least one of but not limited to using […] Pipeline to generate genetic variant calls followed by […] Insight for final analysis including determining co-occurring genetic mutations, or standard next generation sequencing (NGS) analysis methods known to one skilled in the art.
The present invention includes the follow method of preparing single cell DNA sequencing. One example is a single-cell multi-omic assay for detecting single nucleotide variants, copy number variants, and protein changes simultaneously from the same cell, such as […]™. Mononuclear cells were isolated from bone marrow samples via FICOLL-PAQUE® gradient, resuspended in a 10% DMSO solution and frozen at −20° C. until needed. Single cell suspensions were prepared from thawed mononuclear cell samples to final concentrations indicated by the manufacturer's instructions, then loaded onto the […]™ instrument. According to the manufacturer, the […]™ platform uses microfluidics to separate single cells, encapsulate each cell within a […] droplet, proteases are added to each droplet to aid in DNA isolation. Cell encapsulation, targeted PCR, and next generation library preparation were performed per the […]™ platform's manufacturer's instructions using the […]™ platform and the Thermo Fisher SimpliAmp thermal cycler (cat #A24811, or equivalent). The prepared single-cell DNA library was sequenced using Illumina's MiSeq instrument, per the manufacturer's instructions. Analysis of these next-generation sequencing data was performed by first processing the sequencing data using the […] Pipeline (available on the Mission Bio website) to ultimately generate variant calls. The resultant loom files are then imported into the […]™ bioinformatics software, Insight, which is used to identify relevant variants, including co-occurring and rare mutations.
Longitudinal bone marrow samples obtained throughout the course of treatment were analyzed using single cell sequencing. […]

[2] = tested on: relapsed/refractory AML with FLT3-D835 mutation; assay: Example 5: heavily pretreated relapsed/refractory AML patient; single agent crenolanib besylate
Protocol: A person was diagnosed with AML in 2012. […] Initially, the patient was treated with standard induction chemotherapy and a bone marrow transplant. […] To treat this patient's disease and overcome the FLT3-D835 mutation, this patient was provided oral crenolanib besylate on a clinical trial for relapsed/refractory AML patients with activating FLT3 mutations. […] The patient was treated with single agent crenolanib besylate at a dose of 200 mg/m^2 three times daily.

[3] = tested on: AML with FLT3-ITD, FLT3-I836del, FLT3-N841I, FLT3-V491L, FLT3-V592A mutations; assay: Example 7: newly diagnosed AML patient with multiple FLT3 mutations; crenolanib besylate with standard chemotherapy
Protocol: A person was diagnosed with AML in 2016. Their diagnostic bone marrow aspirate was sent for NGS of cancer associated genes. […] To treat this patient's disease and overcome the FLT3 mutations, this patient was provided oral crenolanib besylate in combination with standard chemotherapy on a clinical trial for newly diagnosed AML patients with activating FLT3 mutations. […] The patient was treated with induction chemotherapy, comprised of seven days of cytarabine and three days of idarubicin, followed by 100 mg of crenolanib besylate three times daily starting on day 10 of treatment.
In an effort to maintain remission, the patient was then administered four cycles of high dose cytarabine consolidation chemotherapy. In each cycle, the patient received cytarabine chemotherapy at standard doses, followed by oral crenolanib besylate at 100 mg three times daily starting 48 hours after the last dose of chemotherapy and continuing until 72 hours before the start of the next cycle of chemotherapy. Due to the aggressive nature of FLT3 mutated AML, the patient continued to receive single agent crenolanib besylate therapy at 100 mg three times daily for 21 months, known as maintenance.

[4] = Consolidation (D237), HiDAC + crenolanib
[5] = Induction (D53), induction chemotherapy + crenolanib
[6] = Maintenance (D294), single agent crenolanib besylate
[7] = Maintenance (D406), completion of single agent maintenance

In the case of `CC1(COc2ccc3c(c2)ncn3-c2ccc3cccc(N4CCC(N)CC4)c3n2)COC1` [crenolanib, 4-Piperidinamine, 1-[2-[5-[(3-methyl-3-oxetanyl)methoxy]-1H-benzimidazol-1-yl]-8-quinolinyl]], the “Variant allele frequency FLT3 D835E” value [1, 4] is reported as 0%, the “Variant allele frequency DNMT3A R882H” value [1, 4] is reported as 1% and the “Variant allele frequency FLT3 D839G” value [1, 4] is reported as 1%. For the same compound, the “Variant allele frequency KRAS G12D” value [1, 4] was 1%, the “Variant allele frequency NRAS G13V” value [1, 4] was 0% and the “Variant allele frequency FLT3 N841K” value [1, 4] was 0%. The “Variant allele frequency FLT3 A680V” value [1, 4] was 1%, the “Variant allele frequency FLT3 ITD” value [1, 4] was 0% and the “Variant allele frequency DNMT3A R882C” value [1, 4] was 5%. For the same compound, the “Variant allele frequency NPM1 dupTCTG” value [1, 4] was 0%, the “Variant allele frequency FLT3 D835E” value [1, 5] was 1% and the “Variant allele frequency DNMT3A R882H” value [1, 5] was 3%. The “Variant allele frequency FLT3 D839G” value [1, 5] was 3%, the “Variant allele frequency KRAS G12D” value [1, 5] was 0% and the “Variant allele frequency NRAS G13V” value [1, 5] was 0%. The “Variant allele frequency FLT3 N841K” value [1, 5] was 0%, the “Variant allele frequency FLT3 A680V” value [1, 5] was 0% and the “Variant allele frequency FLT3 ITD” value [1, 5] was 3%. The “Variant allele frequency DNMT3A R882C” value [1, 5] was 0%, the “Variant allele frequency NPM1 dupTCTG” value [1, 5] was 4% and the “Variant allele frequency FLT3 D835E” value [1, 6] was 0%. The “Variant allele frequency DNMT3A R882H” value [1, 6] was 0%, the “Variant allele frequency FLT3 D839G” value [1, 6] was 0% and the “Variant allele frequency KRAS G12D” value [1, 6] was 0%. The “Variant allele frequency NRAS G13V” value [1, 6] was 0%, the “Variant allele frequency FLT3 N841K” value [1, 6] was 0% and the “Variant allele frequency FLT3 A680V” value [1, 6] was 0%. For the same compound, the “Variant allele frequency FLT3 ITD” value [1, 6] was 0%, the “Variant allele frequency DNMT3A R882C” value [1, 6] was 6% and the “Variant allele frequency NPM1 dupTCTG” value [1, 6] was 0%. The “Variant allele frequency FLT3 D835E” value [1, 7] was 0%, the “Variant allele frequency DNMT3A R882H” value [1, 7] was 0% and the “Variant allele frequency FLT3 D839G” value [1, 7] was 0%. The “Variant allele frequency KRAS G12D” value [1, 7] was 0%, the “Variant allele frequency NRAS G13V” value [1, 7] was 0% and the “Variant allele frequency FLT3 N841K” value [1, 7] was 0%. For the same compound, the “Variant allele frequency FLT3 A680V” value [1, 7] was 0%, the “Variant allele frequency FLT3 ITD” value [1, 7] was 0% and the “Variant allele frequency DNMT3A R882C” value [1, 7] was 8%. For the same compound, the “Variant allele frequency NPM1 dupTCTG” value [1, 7] was 0%, the “remaining FLT3 and KRAS mutations” value ([1]; after approximately two months of single agent maintenance therapy) was “cleared” and the “remaining FLT3 and KRAS mutations” value ([1]; at the completion of maintenance therapy) was “remained absent”. For the same compound, the “all variant FLT3 clones” value ([1]; by day 79 into maintenance) was “cleared”, the “mutant containing cancer cell populations (FIGS. 2-4 scatter plots)” value ([1]; diagnosis versus 35 days following the start of induction) was “eliminated the vast majority” and the “NPM1 and FLT3-ITD” value ([1]; following consolidation) was “clearance”. The “variant FLT3 and FLT3 activating mutations (FIG. 1)” value ([1]; induction chemotherapy with crenolanib, HiDAC consolidation with crenolanib, single agent crenolanib maintenance) was “eliminated”, the FLT3-D835 mutation ([2]; day 53, PCR based techniques) was “not detected” and the response ([2]; day 53, crenolanib single agent therapy) was “complete morphologic remission (with incomplete hematological recovery)”. The bone marrow blasts ([2]; person, baseline 90%, day 53, single agent crenolanib besylate 200 mg/m^2 three times daily) was “less than 5%”, the “FLT3-ITD and FLT3-I836del by molecular testing” value ([3]; day 27) was “could not find” and the response ([3]; day 27, crenolanib combination therapy) was “complete morphologic remission”. For the same compound, the bone marrow blasts ([3]; person, baseline 95%, day 27, cytarabine 7 days + idarubicin 3 days, then 100 mg crenolanib besylate three times daily from day 10) was 2%.
